The source of these data is patent US4054734A, “Amphotericin complexes containing citric acid and calcium” (priority 1976, dated 1977).

A short description of data set [1]: solubility in methanol. In kind it is physicochemical. The method, then:
The complexes of the present invention are less soluble in methanol than amphotericin B. Forty mg of the complexes of the present invention are soluble in 750 ml of methanol, whereas 100 mg of amphotericin B are soluble in 750 ml of methanol.

Data set [2] in a line: solubility in methanol adjusted to pH 9.5 with triethylamine. Format: physicochemical. As to conditions: pH adjusted to 9.5 with triethylamine.

On to `C[C@@H]1[C@H](O)[C@@H](C)/C=C/C=C/C=C/C=C/C=C/C=C/C=C/[C@H](O[C@@H]2O[C@H](C)[C@@H](O)[C@H](N)[C@@H]2O)C[C@@H]2O[C@](O)(C[C@@H](O)C[C@@H](O)[C@H](O)CC[C@@H](O)C[C@@H](O)CC(=O)O[C@H]1C)C[C@H](O)[C@H]2C(=O)O` [amphotericin B], for which the “solubility in methanol (in words)” value in data set [1] (100 mg in 750 ml of methanol) is reported as “completely soluble”. Moreover, the “amount soluble in methanol” value in data set [1] (in 750 ml of methanol) turned out to be 100 mg. In addition, in data set [2] (100 mg in 80 ml of methanol), the “solubility in methanol at pH 9.5 (in words)” value is on record as “completely soluble”.
On to “Amphotericin B-Calcium-Oxalic Acid Complex [Example 1]”, for which the “extent of solubilization in methanol” value in data set [1] (100 mg added to 750 ml of methanol) was found to be 40%. The “extent of solubility in methanol at pH 9.5” value in data set [2] (100 mg added to 80 ml of methanol) amounted to 35%.
